Experimental findings from PMC6199744, “Development of Chemical Proteomics for the Folateome and Analysis of the Kinetoplastid Folateome” (ACS Infectious Diseases, 2018) are described below.

Where two headings read alike, the source gives them in different places.

Common to all, as to type: binding
The target in experiment [1] is T1, HeLa cell extract proteins (Homo sapiens, UniProt P56381).
T1 construct: endogenous in cells; host or cells: HeLa cell extract
T1 sequence (P56381 1-51): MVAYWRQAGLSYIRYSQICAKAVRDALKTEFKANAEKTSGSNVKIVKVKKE

Experiment [2] addresses T2, HeLa cell extract proteins (Homo sapiens, UniProt Q53G59).
T2 construct: endogenous in cells; host or cells: HeLa cell extract
T2 sequence (Q53G59 1-568): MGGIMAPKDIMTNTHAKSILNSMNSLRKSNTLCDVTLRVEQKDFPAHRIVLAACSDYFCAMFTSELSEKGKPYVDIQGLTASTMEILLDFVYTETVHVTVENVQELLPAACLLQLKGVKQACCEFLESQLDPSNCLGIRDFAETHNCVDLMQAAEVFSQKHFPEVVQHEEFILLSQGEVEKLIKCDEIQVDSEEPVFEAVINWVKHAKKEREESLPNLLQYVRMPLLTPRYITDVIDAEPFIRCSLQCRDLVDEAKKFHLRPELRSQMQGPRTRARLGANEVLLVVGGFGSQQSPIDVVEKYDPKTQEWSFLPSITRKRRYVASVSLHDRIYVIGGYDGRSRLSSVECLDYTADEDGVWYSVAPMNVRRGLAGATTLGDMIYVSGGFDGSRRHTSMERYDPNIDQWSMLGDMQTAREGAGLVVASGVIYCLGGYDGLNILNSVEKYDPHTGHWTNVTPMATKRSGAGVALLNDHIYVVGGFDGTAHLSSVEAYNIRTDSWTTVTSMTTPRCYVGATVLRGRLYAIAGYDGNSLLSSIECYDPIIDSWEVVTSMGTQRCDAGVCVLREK

For experiment [3], the target named is T3, HeLa cell extract proteins (Homo sapiens, UniProt O43148).
T3 construct: endogenous in cells; host or cells: HeLa cell extract

Experiment [4] deals with T4, HeLa cell extract proteins (Homo sapiens, UniProt O00410).
T4 construct: endogenous in cells; host or cells: HeLa cell extract
T4 sequence (O00410 1-1097): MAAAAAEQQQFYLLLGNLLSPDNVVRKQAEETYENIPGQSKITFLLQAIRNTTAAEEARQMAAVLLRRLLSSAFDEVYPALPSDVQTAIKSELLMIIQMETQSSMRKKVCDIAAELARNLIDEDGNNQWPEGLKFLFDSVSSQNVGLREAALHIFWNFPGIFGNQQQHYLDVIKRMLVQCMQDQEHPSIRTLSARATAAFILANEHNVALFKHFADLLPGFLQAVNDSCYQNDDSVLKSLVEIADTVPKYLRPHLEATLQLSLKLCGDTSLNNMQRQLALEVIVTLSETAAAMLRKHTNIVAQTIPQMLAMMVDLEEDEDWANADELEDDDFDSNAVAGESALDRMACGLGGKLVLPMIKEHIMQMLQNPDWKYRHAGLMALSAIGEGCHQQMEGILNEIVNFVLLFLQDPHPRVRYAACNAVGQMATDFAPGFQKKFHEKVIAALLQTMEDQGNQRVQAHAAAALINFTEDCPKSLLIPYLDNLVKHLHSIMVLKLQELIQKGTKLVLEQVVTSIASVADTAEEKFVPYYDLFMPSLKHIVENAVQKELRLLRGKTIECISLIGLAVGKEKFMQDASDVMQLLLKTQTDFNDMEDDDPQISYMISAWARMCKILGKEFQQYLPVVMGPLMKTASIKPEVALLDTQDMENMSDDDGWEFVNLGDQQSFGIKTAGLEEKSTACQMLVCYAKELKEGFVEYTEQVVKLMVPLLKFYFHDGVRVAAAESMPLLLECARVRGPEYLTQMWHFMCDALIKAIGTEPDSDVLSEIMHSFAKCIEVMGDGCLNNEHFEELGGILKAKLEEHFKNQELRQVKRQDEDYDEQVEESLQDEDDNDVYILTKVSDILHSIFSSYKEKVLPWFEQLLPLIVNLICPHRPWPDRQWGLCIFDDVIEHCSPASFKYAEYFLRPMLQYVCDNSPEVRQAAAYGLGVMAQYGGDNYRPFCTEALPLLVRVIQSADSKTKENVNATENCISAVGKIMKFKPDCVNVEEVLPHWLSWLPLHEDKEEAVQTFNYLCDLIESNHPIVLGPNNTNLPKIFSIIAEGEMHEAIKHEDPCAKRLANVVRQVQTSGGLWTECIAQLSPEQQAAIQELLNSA

Experiment [5] addresses T5, HeLa cell extract proteins (Homo sapiens, UniProt Q99720).
T5 construct: endogenous in cells; host or cells: HeLa cell extract

Experiment [6] has as its target T6, HeLa cell extract proteins (Homo sapiens, UniProt P08758).
T6 construct: endogenous in cells; host or cells: HeLa cell extract
T6 sequence (P08758 1-320): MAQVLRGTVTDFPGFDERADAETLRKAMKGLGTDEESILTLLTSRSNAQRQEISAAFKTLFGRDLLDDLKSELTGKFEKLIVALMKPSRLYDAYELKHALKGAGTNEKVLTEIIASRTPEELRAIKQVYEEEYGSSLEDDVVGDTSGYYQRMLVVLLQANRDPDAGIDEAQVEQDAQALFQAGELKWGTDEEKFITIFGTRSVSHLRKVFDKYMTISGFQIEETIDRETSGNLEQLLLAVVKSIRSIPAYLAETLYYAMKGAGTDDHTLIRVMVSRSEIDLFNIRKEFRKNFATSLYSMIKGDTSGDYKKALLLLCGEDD

For experiment [7], the target named is T7, HeLa cell extract proteins (Homo sapiens, UniProt P13639).
T7 construct: endogenous in cells; host or cells: HeLa cell extract

For experiment [8], the target named is T8, HeLa cell extract proteins (Homo sapiens, UniProt P60709).
T8 construct: endogenous in cells; host or cells: HeLa cell extract

Where [9] appears, read: HeLa, protein ANXA5 (ANNEXIN A5.).
Where [10] appears, read: HeLa, protein KLHL12 (KELCH-LIKE PROTEIN 12).
The mark [11] stands for this setting: HeLa, protein EEF2 (ELONGATION FACTOR 2.).

T3 sequence (O43148 whole entry): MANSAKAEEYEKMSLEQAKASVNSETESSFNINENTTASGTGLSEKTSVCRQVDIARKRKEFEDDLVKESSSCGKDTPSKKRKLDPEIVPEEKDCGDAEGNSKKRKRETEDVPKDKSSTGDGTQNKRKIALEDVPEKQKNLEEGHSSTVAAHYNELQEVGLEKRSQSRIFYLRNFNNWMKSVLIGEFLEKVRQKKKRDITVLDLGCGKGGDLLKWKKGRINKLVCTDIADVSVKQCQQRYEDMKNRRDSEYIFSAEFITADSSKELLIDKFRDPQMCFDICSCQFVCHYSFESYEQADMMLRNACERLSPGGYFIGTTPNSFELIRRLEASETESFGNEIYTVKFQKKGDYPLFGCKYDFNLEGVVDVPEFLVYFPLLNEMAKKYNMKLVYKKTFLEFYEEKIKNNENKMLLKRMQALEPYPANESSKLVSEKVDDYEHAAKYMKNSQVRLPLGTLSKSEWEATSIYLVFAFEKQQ
T5 sequence (Q99720 whole entry): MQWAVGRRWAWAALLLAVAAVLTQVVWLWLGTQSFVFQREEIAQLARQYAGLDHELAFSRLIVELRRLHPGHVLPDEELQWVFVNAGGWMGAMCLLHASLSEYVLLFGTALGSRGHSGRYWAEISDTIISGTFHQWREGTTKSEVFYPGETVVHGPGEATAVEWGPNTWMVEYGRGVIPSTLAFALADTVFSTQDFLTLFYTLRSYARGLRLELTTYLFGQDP

For the compound `Nc1nc2cccc(-c3ccccc3)c2n1Cc1ccc(Cl)c(Cl)c1` [compound 3], the “fold changes relative to vehicle control” value is on record as 0.92 in experiment [1] (captured protein ATP5E, HeLa); 0.97 in experiment [2] (protein KLHL12, HeLa); 0.93 in experiment [3] (HeLa, protein RNMT); 1.03 in experiment [4] (protein IPO5, HeLa); 1.1 in experiment [5] (HeLa, protein SIGMAR1); 0.91 fold in experiment [6] (setting [9]). The “fold changes relative to vehicle control” value amounted to 0.97 fold in experiment [7] (HeLa, protein EEF2 ([…] 2.)) and 1.07 in experiment [8] (protein ACTB, HeLa).

Turning to `NCCOCCOCC(=O)Nc1nc2ncc(CNc3ccc(C(=O)NC(CCC(=O)O)C(=O)O)cc3)nc2c(=O)[nH]1` (centres unmarked) [compound 6], the “fold changes relative to vehicle control” value in experiment [1] (HeLa, captured protein ATP5E) worked out at 1.39; in experiment [2] (setting [10]) it was 1.05; in experiment [3] (HeLa, captured protein RNMT) it was 0.79; in experiment [4] (HeLa, protein IPO5) it was 0.99; in experiment [5] (HeLa, protein SIGMAR1), 0.96; in experiment [6] (HeLa, protein ANXA5) it was 1.26. Further, the “fold changes relative to vehicle control” value in experiment [7] (HeLa, protein EEF2) turned out to be 1.35; in experiment [8] (HeLa, protein ACTB), 1.39.

In the case of `Nc1nc2[nH]cc(CCc3ccc(C(=O)N[C@@H](CCC(=O)O)C(=O)O)cc3)c2c(=O)[nH]1` [PTX, pemetrexed], the “fold changes relative to vehicle control” value in experiment [1] was 1.34; in experiment [2], 1.07; in experiment [3], 0.83; in experiment [4], 0.91; in experiment [5], 0.99; in experiment [6], 0.97. The figures for the “fold changes relative to vehicle control” value in experiment [7] and in experiment [8] were 1.2 and 1.18, respectively.

On to `Nc1nc2c(c(=O)[nH]1)N(C=O)C(CNc1ccc(C(=O)N[C@@H](CCC(=O)O)C(=O)O)cc1)CN2` (some centres unmarked) [LEU, leucovorin], for which the “fold changes relative to vehicle control” value was 1.13 in experiment [1] (HeLa, captured protein ATP5E); 1.36 in experiment [2] (setting [10]); 0.88 in experiment [3] (HeLa, captured protein RNMT); 0.93 in experiment [4] (HeLa, protein IPO5); 1.04 in experiment [5] (HeLa, protein SIGMAR1); 0.99 in experiment [6] (HeLa, protein ANXA5). Besides, the “fold changes relative to vehicle control” value came to 1.06 in experiment [7] (HeLa, protein EEF2) and 1.13 in experiment [8] (HeLa, protein ACTB).

For `CCCCCCOc1ccc(Cc2cnc(N)nc2N)cc1` [compound 1], the “fold changes relative to vehicle control” value in experiment [1] (captured protein ATP5E, HeLa) is recorded as 0.88; in experiment [2] (protein KLHL12, HeLa), 1.15; in experiment [3] (HeLa, protein RNMT), 0.92; in experiment [4] (protein IPO5, HeLa), 0.99; in experiment [5] (HeLa, protein SIGMAR1), 0.99; in experiment [6] (setting [9]), 1.33 fold. The “fold changes relative to vehicle control” value in experiment [7] (setting [11]) came out at 1.33 fold; in experiment [8] (protein ACTB, HeLa) it was 1.25.

Turning to `NCCCNc1ccc(C(=O)NC(CCC(=O)O)C(=O)O)cc1` (centres unmarked) [compound 7], the “fold changes relative to vehicle control” value is listed as 1.37 in experiment [1] (HeLa, captured protein ATP5E); 1.31 in experiment [2] (setting [10]); 1.02 in experiment [3] (HeLa, captured protein RNMT); 0.94 in experiment [4] (HeLa, protein IPO5); 1.05 in experiment [5] (HeLa, protein SIGMAR1); 0.9 in experiment [6] (HeLa, protein ANXA5). The “fold changes relative to vehicle control” value came out at 1.04 in experiment [7] (HeLa, protein EEF2) and 1.04 in experiment [8] (HeLa, protein ACTB).

In the case of `CCCCCCOc1cccc(Cc2cnc(N)nc2N)c1` [compound 2], the “fold changes relative to vehicle control” value in experiment [1] (captured protein ATP5E, HeLa) is given as 0.96; in experiment [2] (protein KLHL12, HeLa), 1.3; in experiment [3] (HeLa, protein RNMT), 0.97; in experiment [4] (protein IPO5, HeLa), 1.27; in experiment [5] (HeLa, protein SIGMAR1), 0.99; in experiment [6] (setting [9]) it was 2.23 fold. Moreover, the “fold changes relative to vehicle control” value is given as 2.22 fold in experiment [7] (setting [11]) and 1.5 in experiment [8] (protein ACTB, HeLa).
